From patent US20120100188A1, “SOLID STATE FORMS OF PALIPERIDONE SALTS AND PROCESS FOR THE PREPARATION THEREOF” (Actavis Group PTC ehf, priority 2009, published 2012) come the findings set out here.

Holding throughout (format): physicochemical
A short description of data set [1]: Stability of the solid state form (as stated, no test data). Conditions: room temperature, enhanced temperature, relative high humidities, aqueous media. The source says:
In one embodiment, the process disclosed herein provides stable solid state forms of paliperidone salts. The term “stable solid state form” refers to stability of the solid state form under the standard temperature and humidity conditions of testing of pharmaceutical products, wherein the stability is indicated by preservation of the original polymorphic form.

Data set [2] is described as follows: Solubility test of paliperidone and its salts in methanol (100 mg of sample). The settings on record: 100 mg of sample used. How it is done: (§1) The solubility data of paliperidone and solid state forms of paliperidone salts is furnished in the below table. The 100 mg of sample was used for solubility test.
Data set [3] in a line: Solubility test of paliperidone and its salts in water (100 mg of sample). Conditions: 100 mg of sample used. Here is the method: as §1

Turning to `Cc1nc2n(c(=O)c1CCN1CCC(c3noc4cc(F)ccc34)CC1)CCCC2O.O=C(O)/C=C/C(=O)O` (stereo not shown), the “Stability of solid state form” value in data set [1] was “stable at room temperature, enhanced temperature, at relative high humidities, and in aqueous media”. In addition, the “Solubility Methanol” value in data set [2] is listed as “Insoluble”.
For `Cc1nc2n(c(=O)c1CCN1CCC(c3noc4cc(F)ccc34)CC1)CCCC2O` (racemic) [Paliperidone, (±)-3-[2-[4-(6-fluoro-1,2-benzisoxazol-3-yl)-1-piperidinyl]ethyl]-6,7,8,9-tetrahydro-9-hydroxy-2-methyl-4H-pyrido[1,2-a]pyrimidin-4-one], the “Solubility Water” value in data set [3] was “Insoluble”. Moreover, in data set [2], the “Solubility Methanol” value is “Insoluble”.
